According to patent US20120202825A1, “Soluble Salts of Thieno [2,3-d] Pyrimidine Derivatives” (priority 2011, published 2012):

How the values were obtained:
[1] = Storage at 40° C./75% RH (XRPD, HPLC purity, colour); type: physicochemical; settings: 4 weeks at 40° C./75% RH under ambient light conditions
[2] = system: stress-induced accelerated colonic transit; test: Water avoidance stress (WAS) fecal pellet output, model of increased colonic transit; type: in vivo, rat
Description: Preliminary testing in the water avoidance stress model confirmed that there exists an association between stress and altered colonic motility. Fecal pellet output was measured by counting the total number of fecal pellets produced during 1 hour of WAS. Using the WAS model, the effect of MCI-225 was compared to the effects of ondansetron (5-HT3 antagonist) or nisoxetine (noradrenaline reuptake inhibitor—NARI) to affect fecal pellet output.
Adult male F-344 rats, supplied by Charles River Laboratories and weighing 270-350 g, were used to complete this study. The rats were housed 2 per cage under standard conditions. Following one to two weeks of acclimatization to the animal facility, the rats were brought to the laboratory and handled daily for another week to acclimatize them to laboratory conditions and to the research associate who performed the studies. All procedures used in this study were approved in accordance with facility standards.
All rats underwent sham stress (1-hour in stress chamber without water) for 2-4 consecutive days before undergoing WAS (sham was performed until rats produced 0-1 pellet per hour for 2 consecutive days). At the end of the 1-hour stress period, the fecal pellets were counted and recorded.
WAS causes an acceleration of colonic transit, which can be quantified by counting the number of fecal pellets, produced during the stress procedure. Rats were placed for 1-hour into a stress chamber onto a raised platform 7.5 cm×7.5 cm×9 cm (L×W×H) in the center of a stress chamber filled with room temperature water 8 cm in depth. The stress chamber was constructed from a rectangular plastic tub (40.2×60.2×31.2 cm).
Control drugs for this study were ondansetron and nisoxetine. Ondansetron was supplied from APIN Chemicals LTD. Nisoxetine was supplied by Tocris. MCI-225 was provided by Mitsubishi Pharma Corp. All drugs were dissolved in a vehicle of 100% propylene glycol (1,2-propanediol) by sonicating for a period of 10 minutes. […]
Statistical significance was assessed using one-way ANOVA followed by Tukey post-test. […]

small intestinal transit = test: Small Intestinal Transit Rodent Model (charcoal meal); type: in vivo, rat
Description: Following an overnight fast, rats were brought to the laboratory in their home cages and received an i.p. injection of one of the following: […] Control rats received no treatment. The treated rats were placed back in the home cages and after 30 min, were fed a 2 mL charcoal meal via an oral gavage. Small intestinal transit was measured following 15 min test-period. Each rat was placed briefly in a glass chamber with IsoFlo for anesthesia and sacrificed. The stomach and the small intestine were removed and the total length of the small intestine was measured. Transit was then measured as the distance that the charcoal meal had traveled along the small intestine and expressed as % of the total length. Animals were randomly assigned to experimental groups and experiments were performed as illustrated in Table 3. Ondansetron was supplied from APIN Chemicals LTD. […] MCI-225 was provided by Mitsubishi Pharma Corp. All drugs were dissolved in a vehicle of 100% propylene glycol (1,2-Propanediol) by sonicating for 10 min. Propylene glycol was obtained from Sigma Chemical Co. Ondansetron, a 5-HT3-receptor antagonist was dosed i.p. at 1, 5, and 10 mg/kg. […] All doses were delivered in a final volume of 200 μL. Animals in the vehicle control group received 200 μL of 100% Propylene glycol and animals in the normal control group were untreated. Adult male F-344 rats (230-330 g) were used in the study. The rats were housed 2 per cage under standard conditions. The animals were fed a standard rodent diet and food and water were provided “ad libitum”. Rats were allowed to acclimatize to the animal facility for one week prior to the transit experiments. […] The distance traveled by the charcoal meal was quantified as a percent of the small intestinal length, using the following equation: Transit(%)=cm traveled by meal/cm total small intestinal length×100 […] […] Differences between individual dose groups within treatments and comparisons between drug-treated and vehicle-treated groups were determined using an unpaired t test considering that when % is used as a relative unit, t-statistic is relevant. […]

[3] = system: acetic acid-induced colonic hypersensitivity; test: Visceromotor response to colorectal distension, acetic acid-induced colonic hypersensitivity; type: in vivo, rat
Description: A 10 min recovery was allowed between distensions.
Adult male rats were used in the study.
Ten minute recovery periods were allowed following each distension.
Statistical significance of the treatment groups was assessed using one-way ANOVA followed by Tukey post-test. […] (*) p<0.05, (**) p<0.01, (***) p<0.001

cisplatin-induced emesis = test: Cisplatin-induced emesis in the ferret; type: in vivo, ferret (Mustela putario furo); settings: 5 mg/kg and 10 mg/kg i.p.
Description: Adult male ferrets (Mustela putario furo) weighing 1200-1880 g were purchased from Triple F Farms (Sayre, Pa.) and housed in individual cages at standardized conditions (12:12 h light/dark cycle and 21-23° C.). Prior to the experiments, the ferrets were allowed a 7-10 day acclimatization period to the animal facility. The ferrets were fed a carnivore diet with free access to food and water throughout the course of the study. The use of the ferret model of emesis and the drug treatment were preapproved in accordance with facility standards. A cisplatin solution was prepared by adding preheated (70° C.) saline to cisplatin powder (Sigma-Aldrich Co.) and stirring or sonicating at 40° C. until dissolved. Following administration of the cisplatin and either MCI-225, ondansetron or vehicle alone, the occurrence of retching and vomiting was monitored for a period of 6 hours. Retching was defined as the number of forceful rhythmic contractions of the abdomen occurring with the animal in characteristic posture, but not resulting in the expulsion of upper gastrointestinal tract contents (Watson et al., British Journal of Pharmacology, 115(1): 84-94 (1994)). […] The latency of the retching or vomiting response and the number of episodes were recorded for each animal and summarized for each experimental group (Wright et al., Infect. Immun., 68(4): 2386-9 (2000)). […]

With “4-(2-fluorophenyl)-6-methyl-2-(piperazin-1-yl)thieno[2,3-d]pyrimidine hydrochloride [MCI-225]” the “colour of material surface after storage” value [1] was “gone yellow”.
For `CNCCC(Oc1ccccc1OC)c1ccccc1` (stereo not drawn) [Nisoxetine], the “WAS-induced fecal pellet output during 1 hour” value ([2]; rats, 3, 10 and 30 mg/kg i.p.) was “reduced by all doses”, the “fecal pellets produced during WAS compared to the vehicle treated group” value ([2]; rats, 10 and 30 mg/kg i.p.) was “significantly fewer” and the small intestinal transit (small intestinal transit; rats, 30 mg/kg i.p.) was “almost completely inhibited”. The small intestinal transit (small intestinal transit; rats, 3 or 10 mg/kg i.p.) was “tendency to decrease”.
With `Cc1nccn1CC1CCc2c(c3ccccc3n2C)C1=O` (stereo not drawn) [Ondansetron] the “stress-induced fecal pellet output during 1 hour of WAS” value ([2]; rats, 1, 5 and 10 mg/kg i.p.) was “dose-dependent inhibition”, the small intestinal transit (small intestinal transit; rats, 1, 5 or 10 mg/kg i.p.) was “significant reduction” and the “responses to moderate (30 mmHg) and high (60 mmHg) intraluminal pressure” value ([3]; rats, 10 mg/kg i.p. (highest dose)) was “did not abolish the responses”. For the same compound, the “behavioral activity of the rats” value ([3]; rats, 1, 5 or 10 mg/kg i.p.) was “No significant changes”, the “number of abdominal contractions (visceromotor response to colorectal distension)” value ([3]; rats, 1, 5 or 10 mg/kg i.p., all distension pressures, vs vehicle) was “dose-dependent decrease” and the “latency of the first emetic response following cisplatin treatment” value (cisplatin-induced emesis) was “increase in the latency”. For the same compound, the “number of emetic events induced by cisplatin” value (cisplatin-induced emesis) was “dose-dependently reduced”.
